The NIST ThermoML archive (doi:10.1021/je5009334)

Assay: xn = mol fraction of the nth substance listed
Details: 101 kPa, Liquid; for speed of sound: Sing-around technique in a fixed-path interferometer; for mass density: Vibrating tube method

CCC(O)CO (stereo not given) [1,2-butanediol] + OCc1ccccc1
Details	mass density [kg/m3]	speed of sound [m/s]
298.15 K, x2 = 0	998.492	1452.6
298.15 K, x2 = 0.1	1003.29	1460.7
298.15 K, x2 = 0.2	1007.97	1469.2
298.15 K, x2 = 0.3	1012.52	1477.2
298.15 K, x2 = 0.4	1016.95	1485.3
298.15 K, x2 = 0.5	1021.24	1493.2
298.15 K, x2 = 0.6	1025.4	1500.6
298.15 K, x2 = 0.7	1029.45	1507.6
298.15 K, x2 = 0.8	1033.41	1514
298.15 K, x2 = 0.9	1037.31	1519.9
303.15 K, x2 = 0	994.744	1438.2
303.15 K, x2 = 0.1	999.491	1445.9
303.15 K, x2 = 0.2	1004.13	1454.3
303.15 K, x2 = 0.3	1008.65	1462.1
303.15 K, x2 = 0.4	1013.06	1470.3
303.15 K, x2 = 0.5	1017.34	1478
303.15 K, x2 = 0.6	1021.49	1485.2
303.15 K, x2 = 0.7	1025.54	1491.7
303.15 K, x2 = 0.8	1029.5	1498
303.15 K, x2 = 0.9	1033.42	1503.9
308.15 K, x2 = 0	990.956	1423.6
308.15 K, x2 = 0.1	995.66	1431.2
308.15 K, x2 = 0.2	1000.26	1439.4
308.15 K, x2 = 0.3	1004.76	1446.8
308.15 K, x2 = 0.4	1009.14	1454.9
308.15 K, x2 = 0.5	1013.4	1462.5
308.15 K, x2 = 0.6	1017.55	1469.4
308.15 K, x2 = 0.7	1021.6	1476
308.15 K, x2 = 0.8	1025.58	1482.2
308.15 K, x2 = 0.9	1029.52	1488.1
313.15 K, x2 = 0	987.136	1409.2
313.15 K, x2 = 0.1	991.786	1416.7
313.15 K, x2 = 0.2	996.372	1424.4
313.15 K, x2 = 0.3	1000.84	1431.8
313.15 K, x2 = 0.4	1005.2	1439.7
313.15 K, x2 = 0.5	1009.46	1447.1
313.15 K, x2 = 0.6	1013.6	1453.9
313.15 K, x2 = 0.7	1017.66	1460.4
313.15 K, x2 = 0.8	1021.64	1466.6
313.15 K, x2 = 0.9	1025.6	1472.5
318.15 K, x2 = 0	983.284	1394.6
318.15 K, x2 = 0.1	987.894	1401.9
318.15 K, x2 = 0.2	992.45	1409.5
318.15 K, x2 = 0.3	996.891	1416.7
318.15 K, x2 = 0.4	1001.24	1424.3
318.15 K, x2 = 0.5	1005.48	1431.4
318.15 K, x2 = 0.6	1009.62	1438.2
318.15 K, x2 = 0.7	1013.68	1444.8
318.15 K, x2 = 0.8	1017.69	1451
318.15 K, x2 = 0.9	1021.67	1456.9
323.15 K, x2 = 0	979.394	1380
323.15 K, x2 = 0.1	983.969	1387.2
323.15 K, x2 = 0.2	988.488	1394.3
323.15 K, x2 = 0.3	992.923	1401.7
323.15 K, x2 = 0.4	997.257	1409.1
323.15 K, x2 = 0.5	1001.49	1416.2
323.15 K, x2 = 0.6	1005.63	1423.1
323.15 K, x2 = 0.7	1009.7	1429.5
323.15 K, x2 = 0.8	1013.72	1435.7
323.15 K, x2 = 0.9	1017.72	1441.6
